# From patent US20230148214A1, “INDAZOLES AND AZAINDAZOLES AS LRRK2 INHIBITORS” (ESCAPE Bio, Inc., priority 2020, published 2023)
# Columns and labels:
# LRRK2 G2019S = target: T1, LRRK2 G2019S (Homo sapiens, UniProt Q5S007, G2019S); test: LRRK2 Kinase Activity Assay (LanthaScreen TR-FRET), G2019S; format: biochemical; details: recombinant G2019S-LRRK2, 25 μM ATP, 400 nM LRRKtide, 60 min; class symbols
# T1 construct: purchased Life Technologies PV4881
# Summary of the method: (§1)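 Recombinant wild-type or G2019S LRRK2 incubated with fluorescein-labeled LRRKtide (ERM-based) peptide, ATP and serially diluted compound for 60 min at room temperature.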
# LRRK2 WT = target: T2, LRRK2 WT (Homo sapiens, UniProt Q5S007); test: LRRK2 Kinase Activity Assay (LanthaScreen TR-FRET), wild type; format: biochemical; details: recombinant wild type LRRK2, 25 μM ATP, 400 nM LRRKtide, 60 min; class symbols
# T2 construct: purchased Life Technologies PR8604B
# T2 sequence (Q5S007 whole entry): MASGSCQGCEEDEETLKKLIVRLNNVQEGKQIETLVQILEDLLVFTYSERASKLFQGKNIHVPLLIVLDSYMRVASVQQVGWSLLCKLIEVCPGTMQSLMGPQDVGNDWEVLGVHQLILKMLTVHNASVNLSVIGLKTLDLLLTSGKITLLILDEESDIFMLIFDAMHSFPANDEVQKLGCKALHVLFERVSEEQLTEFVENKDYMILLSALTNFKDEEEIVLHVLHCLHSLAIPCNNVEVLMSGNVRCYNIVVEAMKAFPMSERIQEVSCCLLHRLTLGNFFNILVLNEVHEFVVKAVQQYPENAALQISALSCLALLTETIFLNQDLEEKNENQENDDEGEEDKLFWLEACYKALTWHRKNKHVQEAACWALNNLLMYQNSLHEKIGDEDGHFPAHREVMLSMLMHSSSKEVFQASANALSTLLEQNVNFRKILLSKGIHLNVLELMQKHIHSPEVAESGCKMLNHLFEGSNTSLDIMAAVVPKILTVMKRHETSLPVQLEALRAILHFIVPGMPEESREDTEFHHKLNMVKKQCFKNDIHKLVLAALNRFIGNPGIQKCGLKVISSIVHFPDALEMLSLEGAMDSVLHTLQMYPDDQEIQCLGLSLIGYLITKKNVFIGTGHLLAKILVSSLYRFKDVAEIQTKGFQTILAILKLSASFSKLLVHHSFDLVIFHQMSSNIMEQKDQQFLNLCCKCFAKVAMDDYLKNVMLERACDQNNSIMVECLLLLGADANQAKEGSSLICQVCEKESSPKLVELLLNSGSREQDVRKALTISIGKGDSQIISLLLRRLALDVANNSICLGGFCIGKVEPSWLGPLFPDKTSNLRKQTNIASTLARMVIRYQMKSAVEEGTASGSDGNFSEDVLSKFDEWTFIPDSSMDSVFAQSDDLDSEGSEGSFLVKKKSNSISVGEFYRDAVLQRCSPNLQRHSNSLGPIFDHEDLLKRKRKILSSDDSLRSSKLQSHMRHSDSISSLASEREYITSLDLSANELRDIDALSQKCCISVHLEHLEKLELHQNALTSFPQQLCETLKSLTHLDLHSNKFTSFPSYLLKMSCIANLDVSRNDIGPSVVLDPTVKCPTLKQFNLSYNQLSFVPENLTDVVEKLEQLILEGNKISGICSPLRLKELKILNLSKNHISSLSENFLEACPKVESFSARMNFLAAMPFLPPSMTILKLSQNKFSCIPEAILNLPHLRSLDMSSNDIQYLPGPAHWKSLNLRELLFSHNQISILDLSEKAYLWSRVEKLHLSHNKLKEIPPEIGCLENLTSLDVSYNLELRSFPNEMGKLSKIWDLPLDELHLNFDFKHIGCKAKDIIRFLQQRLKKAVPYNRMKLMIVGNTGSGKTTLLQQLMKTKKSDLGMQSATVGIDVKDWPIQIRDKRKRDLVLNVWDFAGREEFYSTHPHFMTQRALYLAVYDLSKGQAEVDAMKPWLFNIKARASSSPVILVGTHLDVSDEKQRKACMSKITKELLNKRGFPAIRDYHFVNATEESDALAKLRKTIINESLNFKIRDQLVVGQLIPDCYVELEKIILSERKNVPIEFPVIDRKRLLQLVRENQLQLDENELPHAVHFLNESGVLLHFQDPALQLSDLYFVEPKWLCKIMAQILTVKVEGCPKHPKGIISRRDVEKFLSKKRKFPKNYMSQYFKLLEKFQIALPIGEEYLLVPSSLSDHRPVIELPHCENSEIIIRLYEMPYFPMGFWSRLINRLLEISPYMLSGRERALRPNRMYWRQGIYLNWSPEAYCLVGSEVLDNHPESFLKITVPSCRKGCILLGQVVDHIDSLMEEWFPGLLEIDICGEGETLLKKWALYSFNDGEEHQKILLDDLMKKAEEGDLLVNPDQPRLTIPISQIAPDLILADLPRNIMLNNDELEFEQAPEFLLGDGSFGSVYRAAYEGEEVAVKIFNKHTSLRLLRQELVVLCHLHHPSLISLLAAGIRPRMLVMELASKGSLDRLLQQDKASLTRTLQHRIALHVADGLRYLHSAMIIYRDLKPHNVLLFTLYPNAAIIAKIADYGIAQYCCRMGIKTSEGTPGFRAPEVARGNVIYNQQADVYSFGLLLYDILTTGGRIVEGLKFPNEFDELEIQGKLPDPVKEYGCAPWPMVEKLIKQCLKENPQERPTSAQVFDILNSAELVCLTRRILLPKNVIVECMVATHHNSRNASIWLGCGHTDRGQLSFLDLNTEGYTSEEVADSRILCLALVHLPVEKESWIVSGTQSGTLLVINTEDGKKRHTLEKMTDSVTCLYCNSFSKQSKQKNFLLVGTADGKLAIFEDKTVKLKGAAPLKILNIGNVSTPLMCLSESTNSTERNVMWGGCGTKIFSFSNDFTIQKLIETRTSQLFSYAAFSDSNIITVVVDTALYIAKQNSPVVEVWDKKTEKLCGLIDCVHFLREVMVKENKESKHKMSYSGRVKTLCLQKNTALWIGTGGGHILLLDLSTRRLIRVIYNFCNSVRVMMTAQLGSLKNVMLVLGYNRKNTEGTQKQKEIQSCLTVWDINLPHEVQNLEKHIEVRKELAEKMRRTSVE
# Summary of the method: as §1
# T1 sequence (Q5S007 whole entry G2019S): as the sequence (Q5S007 whole entry) above, with G2019S counted along it
Compound,IC50 (LRRK2 G2019S),IC50 (LRRK2 WT)
"N#Cc1ccc2c(c1)CCC[C@@H]2Oc1ccc2[nH]nc(-c3cnco3)c2c1 (single isomer, unassigned) [Example 18, enantiomer 1, 5-((3-(Oxazol-5-yl)-1H-indazol-5-yl)oxy)-5,6,7,8-tetrahydronaphthalene-2-carbonitrile]",< 100 nM,< 100 nM
"Cc1n[nH]c2ccc(O[C@H]3CCCc4cc(C#N)ccc43)cc12 (single isomer, unassigned) [Example 19, enantiomer 1, 5-((3-Methyl-1H-indazol-5-yl)oxy)-5,6,7,8-tetrahydronaphthalene-2-carbonitrile]",100 to 1000 nM,100 to 1000 nM
"Cc1n[nH]c2ccc(O[C@H]3CCCc4cc(C#N)ccc43)cc12 (single isomer, unassigned) [Example 19, enantiomer 2, 5-((3-Methyl-1H-indazol-5-yl)oxy)-5,6,7,8-tetrahydronaphthalene-2-carbonitrile]",< 100 nM,100 to 1000 nM
"N#Cc1ccc2c(c1)CC[C@@H]2Oc1cc2c(-c3cnco3)n[nH]c2cn1 (single isomer, unassigned) [Example 20, enantiomer 1, 1-((3-(Oxazol-5-yl)-1H-pyrazolo[3,4-c]pyridin-5-yl)oxy)-2,3-dihydro-1H-indene-5-carbonitrile]",< 100 nM,< 100 nM
"N#Cc1ccc2c(c1)CC[C@@H]2Oc1cc2c(-c3cnco3)n[nH]c2cn1 (single isomer, unassigned) [Example 20, enantiomer 2, 1-((3-(Oxazol-5-yl)-1H-pyrazolo[3,4-c]pyridin-5-yl)oxy)-2,3-dihydro-1H-indene-5-carbonitrile]",< 100 nM,100 to 1000 nM
"N#Cc1ccc2c(c1)CC[C@@H]2Nc1cc2c(-c3cnco3)n[nH]c2cn1 (single isomer, unassigned) [Example 21, enantiomer 2, 1-((3-(Oxazol-5-yl)-1H-pyrazolo[3,4-c]pyridin-5-yl)amino)-2,3-dihydro-1H-indene-5-carbonitrile]",< 100 nM,100 to 1000 nM
"Cc1c(C#N)ccc2c1CC[C@@H]2Oc1ccc2[nH]nc(-c3cnco3)c2c1 (single isomer, unassigned) [Example 22, enantiomer 1, 4-Methyl-1-((3-(oxazol-5-yl)-1H-indazol-5-yl)oxy)-2,3-dihydro-1H-indene-5-carbonitrile]",< 100 nM,< 100 nM
"N#Cc1ccc2c(c1F)CC[C@@H]2Oc1ccc2[nH]nc(-c3cnco3)c2c1 (single isomer, unassigned) [Example 24, enantiomer 1, 4-Fluoro-1-((3-(oxazol-5-yl)-1H-indazol-5-yl)oxy)-2,3-dihydro-1H-indene-5-carbonitrile]",< 100 nM,< 100 nM
"Cc1c(C#N)ccc2c1CC[C@@H]2Nc1ccc2[nH]nc(-c3cnco3)c2c1 (single isomer, unassigned) [Example 27, enantiomer 1, 4-methyl-1-((3-(oxazol-5-yl)-1H-indazol-5-yl)amino)-2,3-dihydro-1H-indene-5-carbonitrile]",< 100 nM,< 100 nM
"Cc1cc2c(cc1C#N)CC[C@@H]2Nc1ccc2[nH]nc(-c3cnco3)c2c1 (single isomer, unassigned) [Example 28, enantiomer 1, 6-Methyl-1-((3-(oxazol-5-yl)-1H-indazol-5-yl)amino)-2,3-dihydro-1H-indene-5-carbonitrile]",< 100 nM,100 to 1000 nM
"N#Cc1ccc2c(c1)CC[C@H]2Nc1ccc2[nH]nc(-c3cnco3)c2n1 (single isomer, unassigned) [Example 30, enantiomer 1, 1-((3-(Oxazol-5-yl)-1H-pyrazolo[4,3-b]pyridin-5-yl)amino)-2,3-dihydro-1H-indene-5-carbonitrile]",< 100 nM,< 100 nM
"N#Cc1ccc2c(c1)CC[C@H]2Oc1ccc2[nH]nc(-c3cnco3)c2n1 (single isomer, unassigned) [Example 31, enantiomer 1, 1-((3-(Oxazol-5-yl)-1H-pyrazolo[4,3-b]pyridin-5-yl)oxy)-2,3-dihydro-1H-indene-5-carbonitrile]",< 100 nM,< 100 nM
"N#Cc1ccc2c(c1)CCC[C@H]2Oc1cc2c(-c3cnco3)n[nH]c2cn1 (single isomer, unassigned) [Example 32, enantiomer 1, 5-((3-(Oxazol-5-yl)-1H-pyrazolo[3,4-c]pyridin-5-yl)oxy)-5,6,7,8-tetrahydronaphthalene-2-carbonitrile]",100 to 1000 nM,1000 to 10000 nM
"N#Cc1ccc2c(c1)CCC[C@H]2Oc1cc2c(-c3cnco3)n[nH]c2cn1 (single isomer, unassigned) [Example 32, enantiomer 2, 5-((3-(Oxazol-5-yl)-1H-pyrazolo[3,4-c]pyridin-5-yl)oxy)-5,6,7,8-tetrahydronaphthalene-2-carbonitrile]",< 100 nM,< 100 nM
"N#Cc1ccc2c(c1)CCC[C@@H]2Nc1cc2c(-c3cnco3)n[nH]c2cn1 (single isomer, unassigned) [Example 33, enantiomer 1, 5-((3-(Oxazol-5-yl)-1H-pyrazolo[3,4-c]pyridin-5-yl)amino)-5,6,7,8-tetrahydronaphthalene-2-carbonitrile]",< 100 nM,< 100 nM
"N#Cc1ccc2c(c1)CCC[C@@H]2Nc1cc2c(-c3cnco3)n[nH]c2cn1 (single isomer, unassigned) [Example 33, enantiomer 2, 5-((3-(Oxazol-5-yl)-1H-pyrazolo[3,4-c]pyridin-5-yl)amino)-5,6,7,8-tetrahydronaphthalene-2-carbonitrile]",100 to 1000 nM,100 to 1000 nM
"N#Cc1nc2c(o1)CCC2Nc1ccc2[nH]nc(-c3cnco3)c2c1 (single isomer, unassigned) [Example 36, enantiomer 1, 4-((3-(Oxazol-5-yl)-1H-indazol-5-yl)amino)-5,6-dihydro-4H-cyclopenta[d]oxazole-2-carbonitrile]",100 to 1000 nM,1000 to 10000 nM
"N#Cc1nc2c(o1)CCC2Nc1ccc2[nH]nc(-c3cnco3)c2c1 (single isomer, unassigned) [Example 36, enantiomer 2, 4-((3-(Oxazol-5-yl)-1H-indazol-5-yl)amino)-5,6-dihydro-4H-cyclopenta[d]oxazole-2-carbonitrile]",< 100 nM,< 100 nM

# Further lines, results first:
IC50 (LRRK2 G2019S),IC50 (LRRK2 WT),Compound
< 100 nM,100 to 1000 nM,"N#Cc1ccc2c(c1)CCC[C@@H]2Oc1ccc2[nH]nc(-c3cnoc3)c2c1 (single isomer, unassigned) [Example 17, enantiomer 2, 5-((3-(Isoxazol-4-yl)-1H-indazol-5-yl)oxy)-5,6,7,8-tetrahydronaphthalene-2-carbonitrile]"
< 100 nM,< 100 nM,"N#Cc1ccc2c(c1)CC[C@@H]2Nc1cc2c(-c3cnco3)n[nH]c2cn1 (single isomer, unassigned) [Example 21, enantiomer 1, 1-((3-(Oxazol-5-yl)-1H-pyrazolo[3,4-c]pyridin-5-yl)amino)-2,3-dihydro-1H-indene-5-carbonitrile]"
< 100 nM,< 100 nM,"N#Cc1cc2c(cc1F)[C@@H](Oc1ccc3[nH]nc(-c4cnco4)c3c1)CC2 (single isomer, unassigned) [Example 23, enantiomer 1, 6-Fluoro-1-((3-(oxazol-5-yl)-1H-indazol-5-yl)oxy)-2,3-dihydro-1H-indene-5-carbonitrile]"
< 100 nM,< 100 nM,"N#Cc1cc2c(cc1F)[C@@H](Nc1ccc3[nH]nc(-c4cnco4)c3c1)CC2 (single isomer, unassigned) [Example 25, enantiomer 1, 6-Fluoro-1-((3-(oxazol-5-yl)-1H-indazol-5-yl)amino)-2,3-dihydro-1H-indene-5-carbonitrile]"
< 100 nM,< 100 nM,"N#Cc1ccc2c(c1F)CC[C@@H]2Nc1ccc2[nH]nc(-c3cnco3)c2c1 (single isomer, unassigned) [Example 26, enantiomer 1, 4-Fluoro-1-((3-(oxazol-5-yl)-1H-indazol-5-yl)amino)-2,3-dihydro-1H-indene-5-carbonitrile]"
< 100 nM,< 100 nM,"Cc1cc2c(cc1C#N)CC[C@H]2Oc1ccc2[nH]nc(-c3cnco3)c2c1 (single isomer, unassigned) [Example 29, enantiomer 1, 6-Methyl-1-((3-(oxazol-5-yl)-1H-indazol-5-yl)oxy)-2,3-dihydro-1H-indene-5-carbonitrile]"
< 100 nM,100 to 1000 nM,"N#Cc1ccc2c(c1)CC[C@H]2Nc1ccc2[nH]nc(-c3cnco3)c2n1 (single isomer, unassigned) [Example 30, enantiomer 2, 1-((3-(Oxazol-5-yl)-1H-pyrazolo[4,3-b]pyridin-5-yl)amino)-2,3-dihydro-1H-indene-5-carbonitrile]"
< 100 nM,100 to 1000 nM,"N#Cc1ccc2c(c1)CC[C@H]2Oc1ccc2[nH]nc(-c3cnco3)c2n1 (single isomer, unassigned) [Example 31, enantiomer 2, 1-((3-(Oxazol-5-yl)-1H-pyrazolo[4,3-b]pyridin-5-yl)oxy)-2,3-dihydro-1H-indene-5-carbonitrile]"
< 100 nM,< 100 nM,"N#Cc1nc2c(o1)CCC[C@@H]2Nc1ccc2[nH]nc(-c3cnco3)c2c1 (single isomer, unassigned) [Example 35, enantiomer 1, 4-((3-(Oxazol-5-yl)-1H-indazol-5-yl)amino)-4,5,6,7-tetrahydrobenzo[d]oxazole-2-carbonitrile]"
100 to 1000 nM,100 to 1000 nM,"N#Cc1nc2c(o1)CCC[C@@H]2Nc1ccc2[nH]nc(-c3cnco3)c2c1 (single isomer, unassigned) [Example 35, enantiomer 2, 4-((3-(Oxazol-5-yl)-1H-indazol-5-yl)amino)-4,5,6,7-tetrahydrobenzo[d]oxazole-2-carbonitrile]"
